Test results from PMC2996585 (Journal of medicinal chemistry, 2010).
“Also recorded” adds a separate entry of the source. Where two headings read alike, the source gives them in different places. Bridges are numbered along the chain shown (N, C = ends). Where no end group is shown, it is not given here.

Target: T1, ENaC (Homo sapiens, UniProt P37088)
T1 sequence (P37088 1-669): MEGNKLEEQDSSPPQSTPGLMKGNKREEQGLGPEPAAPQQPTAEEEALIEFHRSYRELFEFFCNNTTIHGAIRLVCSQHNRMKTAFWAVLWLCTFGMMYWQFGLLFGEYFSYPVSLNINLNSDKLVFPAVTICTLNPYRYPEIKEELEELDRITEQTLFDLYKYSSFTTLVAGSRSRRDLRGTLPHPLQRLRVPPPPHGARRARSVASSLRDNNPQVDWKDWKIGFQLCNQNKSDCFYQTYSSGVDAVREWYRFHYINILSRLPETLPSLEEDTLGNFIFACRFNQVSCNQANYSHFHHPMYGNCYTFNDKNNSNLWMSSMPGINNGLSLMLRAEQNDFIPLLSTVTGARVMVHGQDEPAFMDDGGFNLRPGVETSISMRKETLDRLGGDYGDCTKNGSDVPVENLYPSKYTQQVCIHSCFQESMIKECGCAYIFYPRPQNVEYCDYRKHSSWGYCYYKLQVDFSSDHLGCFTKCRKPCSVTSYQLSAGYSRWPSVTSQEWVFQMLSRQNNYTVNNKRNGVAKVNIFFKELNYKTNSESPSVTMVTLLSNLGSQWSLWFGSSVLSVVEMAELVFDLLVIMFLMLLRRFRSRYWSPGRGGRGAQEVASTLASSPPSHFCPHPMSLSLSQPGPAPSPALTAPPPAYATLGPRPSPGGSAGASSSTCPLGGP
T1 sequence (P51168 1-640 partner): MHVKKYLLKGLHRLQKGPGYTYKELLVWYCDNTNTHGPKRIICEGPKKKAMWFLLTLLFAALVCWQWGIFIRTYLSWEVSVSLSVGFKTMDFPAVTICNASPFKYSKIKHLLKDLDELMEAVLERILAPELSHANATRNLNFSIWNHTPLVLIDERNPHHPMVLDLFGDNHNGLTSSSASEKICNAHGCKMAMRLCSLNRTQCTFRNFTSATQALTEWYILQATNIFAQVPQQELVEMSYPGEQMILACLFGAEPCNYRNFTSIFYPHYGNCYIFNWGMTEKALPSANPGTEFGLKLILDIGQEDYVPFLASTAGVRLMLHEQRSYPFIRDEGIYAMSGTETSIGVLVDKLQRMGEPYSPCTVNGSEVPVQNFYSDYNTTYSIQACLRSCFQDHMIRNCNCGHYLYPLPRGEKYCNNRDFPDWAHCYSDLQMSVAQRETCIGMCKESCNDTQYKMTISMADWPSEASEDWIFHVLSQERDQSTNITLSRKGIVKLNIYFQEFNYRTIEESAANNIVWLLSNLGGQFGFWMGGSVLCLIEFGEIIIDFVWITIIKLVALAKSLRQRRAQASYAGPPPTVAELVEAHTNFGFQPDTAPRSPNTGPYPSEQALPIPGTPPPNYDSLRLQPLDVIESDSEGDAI
T1 sequence (P51170 1-649 partner): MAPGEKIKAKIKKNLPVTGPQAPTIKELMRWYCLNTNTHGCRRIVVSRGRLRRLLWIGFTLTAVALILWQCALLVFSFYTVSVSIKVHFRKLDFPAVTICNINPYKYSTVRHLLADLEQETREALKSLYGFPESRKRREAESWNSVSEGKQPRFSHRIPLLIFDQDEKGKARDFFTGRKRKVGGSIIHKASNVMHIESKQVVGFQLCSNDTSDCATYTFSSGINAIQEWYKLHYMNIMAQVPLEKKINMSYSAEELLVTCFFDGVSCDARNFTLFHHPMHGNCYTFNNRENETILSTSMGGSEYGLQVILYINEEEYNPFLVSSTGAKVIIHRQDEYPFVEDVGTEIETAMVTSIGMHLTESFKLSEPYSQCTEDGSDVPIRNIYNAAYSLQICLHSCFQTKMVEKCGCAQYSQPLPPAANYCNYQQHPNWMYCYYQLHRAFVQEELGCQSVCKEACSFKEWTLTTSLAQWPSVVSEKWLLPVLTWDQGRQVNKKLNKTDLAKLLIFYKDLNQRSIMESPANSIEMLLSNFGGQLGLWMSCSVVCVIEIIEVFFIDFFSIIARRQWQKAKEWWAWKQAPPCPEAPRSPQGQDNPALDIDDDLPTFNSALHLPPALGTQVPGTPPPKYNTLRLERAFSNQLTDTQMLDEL
Format: cell-based
Details: A549 cells, whole-cell patch clamp; for ENaC-activating effect / effect on sodium current (in words): no concentration stated at the place

CQRETPEGAEAKGGC (disulfide 1-15) [compound 2]
Effect on ENaC (concentrations up to 480 nM): no effect | ENaC-activating effect / effect on sodium current (in words): ineffective; also recorded: inactive

Cyclo(7-aminoheptanoic acid-GQRETPEGAEAKPWY) (head to tail) [compound 10]
Effect on ENaC (concentrations up to 240 nM): no effect | Effect on ENaC (concentrations up to 480 nM): no effect

Cyclo(5-aminopentanoic acid-GQRETPEGAEAKPWYG) (head to tail) [compound 6]
Effect on ENaC (concentrations up to 240 nM): no effect | Effect on ENaC (concentrations up to 480 nM): no effect | ENaC-activating effect / effect on sodium current (in words): did not affect ENaC; also recorded: inactive

Cyclo(6-aminohexanoic acid-GQRETPEGAEAKPWYG) (head to tail) [compound 11]
Effect on ENaC (concentrations up to 240 nM): no effect | Effect on ENaC (concentrations up to 480 nM): no effect | ENaC-activating effect / effect on sodium current (in words): inactive | ENaC-activating effect / effect on sodium current (in words) (listed as 22): did not affect ENaC

Cyclo(4-aminobutanoic acid-GQRETPEGAEAKPWYG) (head to tail) [compound 7]
Effect on ENaC (concentrations up to 240 nM): no effect | Effect on ENaC (concentrations up to 480 nM): no effect | ENaC-activating effect / effect on sodium current (in words): did not affect ENaC; also recorded: inactive

CGQREAPAGAAAKPWYC (disulfide 1-17) [compound 12, reference compound]
Effect on ENaC (concentrations up to 480 nM): no effect | ENaC-activating effect / effect on sodium current (in words): ineffective; also recorded: no effect
